Key:
HepG2-CYP3A4 cells = assay: Perfusion test of first pass effect, liver compartment (HepG2-CYP3A4 cells downstream of Caco-2 insert); conditions: 240 μL of 62.5 μg/mL substrate solution in insert, HBSS perfusion, sampled every 30 minutes for 180 minutes, LC-MS-MS, FIG. 20
Method: (§1) In the present example, small intestine epithelial cells and liver cells were disseminated in separate compartments, and a first pass effect of a chemical substance was evaluated by using a device in which the respective compartments were connected via a flow path system. In the device described with reference to FIG. 1, Caco-2 cells were disseminated as model cells of the small intestine epithelial cells, and HepG2-CYP3A4 cells obtained by a genetic manipulation to excessively develop CYP3A4 in HepG2 cells were disseminated as model cells of the liver cells. Thus, the first pass effects (absorption and metabolism) of the chemical substance on two types of cells (the small intestine epithelial cells and the liver cells) were simultaneously evaluated.
(§2) • a) Caco-2 Cell • i) 0.4 mL of cell suspension was added to an inner side (an apical side) of a porous membrane filter at a density of 0.5 to 5×10^5 cells/cm^2 (e.g., 0.6×10^5 cells/cm^2). • ii) 0.8 mL of medium was added to an outer side (a basal side) of the porous membrane filter. • iii) The cells were cultured in a carbon dioxide gas incubator (5% of CO2 at 37° C. under humidification conditions) for about 3 weeks. An apical-side medium and a basal-side medium were appropriately changed.
(§3) Prior to use in a test, an electric resistance of a single layer film was measured by using an electric resistance measuring device.

Caco-2 cells = assay: Perfusion test of first pass effect, small intestine compartment (Caco-2 single layer film in insert); conditions: 240 μL of 62.5 μg/mL substrate solution in insert, HBSS perfusion, sampled every 30 minutes for 180 minutes, LC-MS-MS, FIG. 19
Method: as §1, §2, §3

`Cc1ncc2n1-c1ccc(Cl)cc1C(c1ccccc1F)=NC2` [midazolam, Midazolam] was tested, and the “permeation amount of midazolam” value (HepG2-CYP3A4 cells) was “successive increase” and the “permeation amount of midazolam permeated through the Caco-2 single layer film” value (Caco-2 cells) was “successive increase”.
